Columns and labels:
human TOP1 [1] = biological target: T1, human TOP1 (Homo sapiens, UniProt P11387); assay: TOP1 supercoiled plasmid DNA relaxation assay; type: biochemical; conditions: for TOP1 Inhibition 1 min: 1 min reaction; for TOP1 Inhibition 1 min / TOP1 Inhibition 3 min / TOP1 Inhibition 5 min: compounds at 100 μM, semiquantitative; for TOP1 Inhibition 3 min: 3 min reaction; for TOP1 Inhibition 5 min: 5 min reaction; for TOP1 relaxation activity after preincubation of compound with TOP1 / Persistence of TOP1 inhibition over the time course: 100 μM; for TOP1 relaxation activity after preincubation of compound with TOP1: compound incubated with TOP1 for 15 min at 37 °C, then DNA added; for Persistence of TOP1 inhibition over the time course: in words
T1 construct: made in house; host or cells: Saccharomyces cerevisiae TOP1 null strain RS190, plasmid pHT143 (GAL promoter)
T1 sequence (P11387 1-765): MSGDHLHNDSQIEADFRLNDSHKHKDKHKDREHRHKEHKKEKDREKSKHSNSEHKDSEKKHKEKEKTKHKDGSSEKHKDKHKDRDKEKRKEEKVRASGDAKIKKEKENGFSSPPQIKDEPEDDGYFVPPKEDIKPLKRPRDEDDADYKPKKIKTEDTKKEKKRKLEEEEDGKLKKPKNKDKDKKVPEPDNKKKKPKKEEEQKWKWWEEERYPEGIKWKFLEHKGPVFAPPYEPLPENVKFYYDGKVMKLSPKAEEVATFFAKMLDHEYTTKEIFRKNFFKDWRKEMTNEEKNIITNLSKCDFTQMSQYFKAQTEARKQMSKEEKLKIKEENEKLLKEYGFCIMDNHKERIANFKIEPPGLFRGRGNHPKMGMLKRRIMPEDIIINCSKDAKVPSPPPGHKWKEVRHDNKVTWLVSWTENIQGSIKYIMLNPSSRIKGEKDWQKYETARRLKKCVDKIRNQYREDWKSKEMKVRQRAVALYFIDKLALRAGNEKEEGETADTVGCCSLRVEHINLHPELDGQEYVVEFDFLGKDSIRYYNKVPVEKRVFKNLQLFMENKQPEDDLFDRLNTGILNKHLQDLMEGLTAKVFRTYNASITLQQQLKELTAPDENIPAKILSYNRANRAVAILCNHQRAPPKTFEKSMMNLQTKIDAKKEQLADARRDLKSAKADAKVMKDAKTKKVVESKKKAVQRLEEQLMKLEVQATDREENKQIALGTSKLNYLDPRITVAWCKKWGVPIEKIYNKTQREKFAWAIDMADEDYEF
Description: The effect of the previously prepared compounds as TOP1 inhibitors was studied. A conventional supercoiled plasmid relaxation assay was used to determine if the newly fused tetrahydroindenoquinolines 8, more aromatic indenoquinolines 9, and carbonyl derivatives 10 with phosphine oxide substituents inhibit human TOP1 activity by converting supercoiled plasmid DNA to its relaxed form. In these experiments, compound samples were mixed with the enzyme followed by the addition of a supercoiled plasmid DNA substrate, and incubation continued for increasing time intervals (1 min, 3 min, and 5 min). The reaction was terminated by the addition of SDS. DNA relaxation products were then resolved by 1% agarose electrophoresis gel and visualized by gel red staining.
The yeast Saccaromyces cerevisiae TOP1 null strain RS190, which was used for the expression of recombinant human TOP1, was a kind gift from R. Sternglanz (State University of New York, Stony Brook, NY, USA). Plasmid pHT143, for the expression of recombinant TOP1 under the control of an inducible GAL promoter, was described. The plasmids pHT143 were transformed into the yeast S. cerevisiae strain RS190. The proteins were expressed and purified by affinity chromatography essentially as described. The protein concentrations were estimated from Coomassie blue-stained SDS/polyacrylamide gels by comparison to serial dilutions of bovine serum albumin (BSA).
TOP1 activity was assayed using a DNA relaxation assay by incubating 110 ng/mL of TOP1 with 0.5 µg of negatively supercoiled pUC18 in […] of reaction buffer (20 mM Tris HCl, 0.1 mM Na2EDTA, 10 mM MgCl2, […] acetylated BSA, and 150 mM KCl, pH 7.5). The effect of the synthesized phosphorylated derivatives 8, 9, and 10 on the TOP1 activity was measured by adding different concentrations of the compounds, at different time points, as indicated in the text. The reactions were performed at 37 °C stopped by the addition of 0.5% SDS after the indicated time intervals. The samples were protease-digested and electrophoresed in a horizontal 1% agarose gel in 1xTBE (50 mM Tris, 45 mM boric acid, 1 mM EDTA) at 25V during 18h. The gel was stained with gel red (BIOTIUM, 5 mg/mL), destained with water, and photographed under UV illumination. Since all drugs were dissolved in dimethyl sulfoxide (DMSO), a […] control sample containing the same DMSO concentration as the samples incubated with the drugs was included in all experiments.

[2] = test system: MRC-5, lung fibroblast cells; assay: CCK-8 cytotoxicity assay, MRC5; type: cell-based, human; conditions: for IC50: Homo sapiens, MRC5 non-cancerous cells, 48h, CCK-8
Description: (§1) The cytotoxic effects of the newly synthesized diphenyl(tetrahydro-5H-indeno[2,1-c]quinolin-2-yl)phosphine oxides 8, diphenyl(7H-indeno[2,1-c]quinolin-2-yl)phosphine oxides 9, and diphenyl(7-oxo-7H-indeno[2,1-c]quinolin-2-yl)phosphine oxides 10 derivatives were studied against several human cell lines: A549 (carcinomic human alveolar basal epithelial cell), SKOV3 (human ovarian carcinoma), and HEK293 (human embryonic kidney). Furthermore, in order to analyze the selective cytotoxicity facing exclusively cancerous cell lines, toxicity against a non-cancerous cell line (MRC-5, lung fibroblast cells) was also evaluated (Table 3). The cell counting kit (CCK-8) assay was employed to assess the growth inhibition and cell proliferation inhibitory activities of the compounds, which are described in Table 3 as IC50 values.
(§2) Cells were cultured according to the supplier’s instructions. Cells were seeded in 96-well plates at a density of 1.5–3 × 10^3 cells per well and incubated overnight in 0.1 mL of media supplied with 10% Fetal Bovine Serum (Lonza) in a 5% CO2 incubator at 37 °C. On day 2, drugs were added and the samples were incubated for 48h. After treatment, 10 μL of the cell counting kit-8 was added into each well for an additional 2h incubation at 37 °C. The absorbance of each well was determined by an Automatic Elisa Reader System at 450 nm wavelength (deducting 620 nm). CPT was used as the positive control.

[3] = test system: A549 (carcinomic human alveolar basal epithelial cell); assay: CCK-8 cytotoxicity assay, A549; type: cell-based; conditions: Homo sapiens, A549, 48 h, A549 cells, 48h, CCK-8
Description: as §1, §2

[4] = test system: SKOV3 (human ovarian carcinoma); assay: CCK-8 cytotoxicity assay, SKOV3; type: cell-based; conditions: SK-OV-3, SKOV3 cells, 48h
Description: as §1, §2

[5] = test system: HEK293 (human embryonic kidney); assay: CCK-8 cytotoxicity assay, HEK293; type: cell-based; conditions: HEK293 cells, 48h
Description: as §1, §2

human TOP1 [6] = biological target: T1, human TOP1; assay: TOP1 supercoiled plasmid DNA relaxation assay; type: biochemical; conditions: for TOP1 Inhibition 30 min: 30 min reaction, compounds at 100 μM, semiquantitative; for TOP1 relaxation activity after preincubation of compound with DNA: 100 μM, compound incubated with DNA for 15 min at 37 °C before TOP1 was added

Row | TOP1 Inhibition 1 min (human TOP1 [1]) | TOP1 Inhibition 3 min (human TOP1 [1]) | TOP1 Inhibition 5 min (human TOP1 [1]) | TOP1 Inhibition 30 min (human TOP1 [6]) | TOP1 relaxation activity after preincubation of compound with DNA (human TOP1 [6]) | Persistence of TOP1 inhibition over the time course (human TOP1 [1]) | Compound | IC50 [2] | IC50 [3] | IC50 [4] | IC50 [5] | TOP1 relaxation activity after preincubation of compound with TOP1 (human TOP1 [1]) | Cytotoxicity against MRC5 (in words) ([2]; non-cancerous cell line)
1 | ++ | ++ | ++ | ++ | – | – | O=P(c1ccccc1)(c1ccccc1)c1ccc2c(c1)C1c3ccccc3CC1C(c1ccc(F)cc1)N2 (stereo not drawn) [Compound 8c, Diphenyl(6-(4-fluorophenyl)-6,6a,7,11b-tetrahydro-5H-indeno[2,1-c]quinolin-2-yl)phosphine oxide] | 10.7 ± 0.43 µM | 19.9 ± 3.35 µM | > 50 µM | > 50 µM | – | –
2 | ++ | ++ | ++ | ++ | – | – | COc1cccc(-c2nc3ccc(P(=O)(c4ccccc4)c4ccccc4)cc3c3c2Cc2ccccc2-3)c1 [Compound 9i, Diphenyl(6-(3-methoxyphenyl)-7H-indeno[2,1-c]quinolin-2-yl)phosphine oxide] | > 50 µM | > 50 µM | > 50 µM | > 50 µM | – | –
3 | + (weak inhibition) | + (weak inhibition) | + (weak inhibition) | + (weak inhibition) | – | – | O=C1c2ccccc2-c2c1c(-c1cccc3ccccc13)nc1ccc(P(=O)(c3ccccc3)c3ccccc3)cc21 [Compound 10g, (6-(Naphth-1-yl)-7-oxo-7H-indeno[2,1-c]quinolin-2-yl)diphenylphosphine oxide] | > 50 µM | > 50 µM | > 50 µM | > 50 µM | – | –
4 | +++ (strong inhibition) | +++ (strong inhibition) | +++ (strong inhibition) | +++ (strong inhibition) | partially relaxing the DNA | – | O=P(c1ccccc1)(c1ccccc1)c1ccc2nc(-c3ccc(C(F)(F)F)cc3)c3c(c2c1)-c1ccccc1C3 [Compound 9b, Diphenyl(6-(4-(trifluoromethyl)phenyl)-7H-indeno[2,1-c]quinolin-2-yl)phosphine oxide] | > 50 µM | > 50 µM | > 50 µM | > 50 µM | the enzyme was inactive, not being able to relax the DNA | –
5 | +++ (strong inhibition) | +++ (strong inhibition) | +++ (strong inhibition) | +++ (strong inhibition) | partially relaxing the DNA | more persistent inhibition | O=P(c1ccccc1)(c1ccccc1)c1ccc2c(c1)C1c3ccccc3CC1C(c1ccc(C(F)(F)F)cc1)N2 (stereo not drawn) [Compound 8b, Diphenyl(6-(4-(trifluoromethyl)phenyl)-6,6a,7,11b-tetrahydro-5H-indeno[2,1-c]quinolin-2-yl)phosphine oxide] | > 50 µM | 25.8 ± 6.98 µM | > 50 µM | > 50 µM | the enzyme was inactive, not being able to relax the DNA | –
6 | ++ | ++ | ++ | ++ | – | – | O=C1c2ccccc2-c2c1c(-c1ccc(C(F)(F)F)cc1)nc1ccc(P(=O)(c3ccccc3)c3ccccc3)cc21 [Compound 10b, Diphenyl(7-oxo-(6-(4-trifluoromethyl)phenyl)-7H-indeno[2,1-c]quinolin-2-yl)phosphine oxide] | > 50 µM | > 50 µM | > 50 µM | > 50 µM | – | –
7 | ++ | ++ | ++ | ++ | – | – | O=P(c1ccccc1)(c1ccccc1)c1ccc2nc(-c3cccc4ccccc34)c3c(c2c1)-c1ccccc1C3 [Compound 9g, Diphenyl(6-(naphthalen-1-yl)-7H-indeno[2,1-c]quinolin-2-yl)phosphine oxide] | > 50 µM | > 50 µM | > 50 µM | > 50 µM | – | –
8 | + (weak inhibition) | + (weak inhibition) | + (weak inhibition) | + (weak inhibition) | – | – | O=P(c1ccccc1)(c1ccccc1)c1ccc2c(c1)C1c3ccccc3CC1C(c1cccc3ccccc13)N2 (stereo not drawn) [Compound 8g, Diphenyl(6-(naphthalen-1-yl)-6,6a,7,11b-tetrahydro-5H-indeno[2,1-c]quinolin-2-yl)phosphine oxide] | > 50 µM | > 50 µM | > 50 µM | > 50 µM | – | –
9 | + (weak inhibition) | + (weak inhibition) | + (weak inhibition) | + (weak inhibition) | – | more persistent inhibition | O=[N+]([O-])c1ccc(C2Nc3ccc(P(=O)(c4ccccc4)c4ccccc4)cc3C3c4ccccc4CC23)cc1 (stereo not drawn) [Compound 8k, Diphenyl(6-(4-nitrophenyl)-6,6a,7,11b-tetrahydro-5H-indeno[2,1-c]quinolin-2-yl)phosphine oxide] | > 50 µM | > 50 µM | > 50 µM | > 50 µM | – | –

Row | Compound | TOP1 Inhibition 1 min (human TOP1 [1]) | TOP1 Inhibition 3 min (human TOP1 [1]) | TOP1 Inhibition 5 min (human TOP1 [1]) | TOP1 Inhibition 30 min (human TOP1 [6]) | TOP1 relaxation activity after preincubation of compound with DNA (human TOP1 [6]) | Persistence of TOP1 inhibition over the time course (human TOP1 [1]) | IC50 [2] | IC50 [3] | IC50 [4] | IC50 [5] | TOP1 relaxation activity after preincubation of compound with TOP1 (human TOP1 [1]) | Cytotoxicity against MRC5 (in words) ([2]; non-cancerous cell line)
10 | CC[C@@]1(O)C(=O)OCc2c1cc1n(c2=O)Cc2cc3ccccc3nc2-1 [CPT, camptothecin, reference compound] | ++ | − (no inhibition) | − (no inhibition) | − (no inhibition) | – | short-term reversible effect | 0.11 ± 0.02 µM | 0.001 µM | 0.0055 µM | – | – | high toxicity

— paper PMC11678328, “Phosphine Oxide Indenoquinoline Derivatives: Synthesis and Biological Evaluation as Topoisomerase I Inhibitors and Antiproliferative Agents” (Molecules, 2024)
